The source of these data is patent publication US20250011792A1, “IRAP INHIBITORS FOR USE IN THE TREATMENT OF INFLAMMATORY DISEASES” (INSTITUT NATIONAL DE LA SANTÉ ET DE LA RECHERCHE MÉDICALE, priority 2021, published 2025).

SMILES strings stand for the structures.

For test [1], the system named is mast cells. Nature of the test: Cytokine secretion by mast cells treated with IRAP inhibitors for 24 h before ionomycin/PMA activation. The settings on record: mast cells treated for 24 h prior to ionomycin/PMA activation; data not shown. Type of test: cell-based, mouse. The procedure: PCMCs were stimulated with 1 uM ionomycin/10 nM PMA or 100 ng/ml LPS at 37° C. for 6 h for cytokine secretion or with ionomycin/PMA or 10 ug/ml 48/80 for 30 min for histamine measurement.
(§1) Supernatants were collected and histamine was quantified using the Histamine Dynamic HTRF kit (Cisbio). TNF-α, IL-6, or IL-10 were quantified using specific cytokine ELISA kits. Kits were used according to the manufacturer's instructions.
Considering the aminopeptidase function of TRAP, we wondered if its catalytic activity was required for efficient cytokine secretion. To test this, we treated mast cells with the IRAP inhibitors HFI-419, 4u 55 and 22b (a gift from E. Stratikos) for 24 h prior to ionomycin/PMA activation.

The test system of test [2] is IRAP wt mice. The experiment in a line: Mouse ear challenge with arachidonic acid, cytokines quantified in ear tissue homogenates. Type of test: in vivo. To be noted: 1 μmol/kg intravenously at 24 h and 15 min prior to ear challenge; ear tissue homogenates normalized to total protein; FIG. 3. The protocol: IRAP wt mice were injected i.v. with 6 μg HI-419 or vehicle 24 h and 15 min prior to ear challenge. Cytokine concentrations were quantified in ear tissue homogenates and normalized to total protein concentration.
Twenty microliters arachidonic acid (AA) (30 mg/ml in acetone) were applied to the inner and outer surface of one mouse ear, whereas the other ear was left untreated.
One hour after AA application, mice were sacrificed and ears were collected. The ear biopsies were dissociated using the pre-set “Protein” protocol of gentleMACS™ Octo Dissociator (Milteniy Biotec) in 800 μl ice-cold homogenization buffer [(PBS containing 0.4M NaCl, 0.05% Tween-20, 10 mM EDTA and protease inhibitor cocktail complete (Roche)]. The homogenates were cleared by 10 min centrifugation at 5000×g, and the total protein concentration determined in a BCA assay. Histamine or cytokines in the supernatant were quantified as described below.
as §1
(§2) Vehicle or inhibitor at a dose of 1 μmol/kg was administered intravenously at 24 h and 15 min prior to the ear challenge. […] We therefore hypothesized that in addition to blocking its catalytic activity, HI-419 may also affect the stability of IRAP.

Test [3] addresses T1, IRAP (Mus musculus, UniProt Q8C129).
T1 construct: endogenous in cells; host or cells: primary mouse mast cells (BMMC / peritoneal cell-derived mast cells) from wt mice
T1 sequence (Q8C129 1-1025): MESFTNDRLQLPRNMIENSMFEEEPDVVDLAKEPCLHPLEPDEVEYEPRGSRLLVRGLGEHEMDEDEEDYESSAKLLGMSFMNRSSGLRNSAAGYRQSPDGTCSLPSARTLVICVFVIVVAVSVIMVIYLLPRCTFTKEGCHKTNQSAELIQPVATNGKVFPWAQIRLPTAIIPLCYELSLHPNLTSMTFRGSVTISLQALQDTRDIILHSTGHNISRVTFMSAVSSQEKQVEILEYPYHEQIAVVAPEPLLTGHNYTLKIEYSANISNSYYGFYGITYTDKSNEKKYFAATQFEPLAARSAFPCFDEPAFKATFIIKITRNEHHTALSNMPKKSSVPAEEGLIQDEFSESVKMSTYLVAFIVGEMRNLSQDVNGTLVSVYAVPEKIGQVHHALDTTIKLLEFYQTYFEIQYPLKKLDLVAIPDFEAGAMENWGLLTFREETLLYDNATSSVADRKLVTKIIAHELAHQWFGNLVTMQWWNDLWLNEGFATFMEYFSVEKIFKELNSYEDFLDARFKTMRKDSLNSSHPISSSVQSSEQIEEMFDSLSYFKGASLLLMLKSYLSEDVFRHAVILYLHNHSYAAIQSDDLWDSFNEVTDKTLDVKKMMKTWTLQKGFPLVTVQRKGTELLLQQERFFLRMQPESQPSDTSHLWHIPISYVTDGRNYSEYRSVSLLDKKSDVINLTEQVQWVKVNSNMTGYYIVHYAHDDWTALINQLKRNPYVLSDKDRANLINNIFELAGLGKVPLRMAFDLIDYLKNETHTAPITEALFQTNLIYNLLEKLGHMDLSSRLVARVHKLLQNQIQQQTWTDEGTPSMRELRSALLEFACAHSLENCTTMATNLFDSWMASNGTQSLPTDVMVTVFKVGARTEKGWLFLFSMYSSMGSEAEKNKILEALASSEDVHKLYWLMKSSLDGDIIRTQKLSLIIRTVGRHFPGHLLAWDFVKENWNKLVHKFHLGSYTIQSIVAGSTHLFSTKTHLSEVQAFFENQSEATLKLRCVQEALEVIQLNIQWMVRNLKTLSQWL
Nature of the test: Intracellular flow cytometry staining of IRAP expression after HFI-419 treatment. To be noted: starting from 24 h of treatment, data not shown. Type of test: cell-based. The protocol:
(§3) For TNF-α surface staining, PCMCs were stimulated with 1 μM ionomycin/10 nM PMA or 100 ng/ml LPS at 37° C. for 4 h in the presence of TAPI-1, washed with ice-cold PBS, and incubated at 4° C. with Fcblock (Miltenyi) followed by fluorochrome-conjugated CD117, FcεRI and TNF-α antibodies diluted in PBS-1% BSA. Intracellular staining of cytokines, IRAP and VAMP3 was performed using the BD intracellular staining kit and suitable species-specific fluorescent secondary antibodies (Life technologies).
as §2

In test [4] the test system is VAMP3. Nature of the test: Intracellular flow cytometry staining of VAMP3 expression after HFI-419 treatment. To be noted: starting from 24 h of treatment, data not shown. It is filed as cell-based, mouse. The procedure: as §3, §2
Test [5] deals with wt cells (mast cells). The experiment in a line: TNF-α secretion in the presence of endocytosis inhibitors. Type of test: cell-based, mouse. The settings on record: wt versus IRAPko cells; data not shown.
Test [6] deals with IRAP. The experiment in a line: Subcellular localization of IRAP under endocytosis inhibition after LPS activation. It is filed as cell-based, mouse. To be noted: after three hours of LPS activation; data not shown.

Regarding `CCOC(=O)C1=C(NC(C)=O)Oc2cc(O)ccc2C1c1cccnc1` (racemic) [HFI-419, (±)-Ethyl-2-acetamido-7-hydroxy-4-(pyridin-3-yl)-4H-chromene-3-carboxylate], in test [1], the “inhibition of IRAP-dependent cytokine secretion in vitro” value is reported as “significant inhibition”. Besides, in test [2], the “IL-6 secretion in challenged ear versus vehicle-treated animals” value was “significantly less”, the “IL-10 secretion in challenged ear versus vehicle-treated animals” value was “unaffected” and the “TNF-α secretion in challenged ear versus vehicle-treated animals” value was “significantly less”. In addition, the “expression level of IRAP” value in test [3] is on record as “decreased expression levels”. In addition, the “expression level of IRAP” value in test [3] (listed as HI-419) is reported as “reduced”. For the same molecule, the “expression level of VAMP3” value in test [4] is given as “decreased expression levels”.

Regarding `CS(=O)(=O)N1CCN(Cc2cc3nc(-c4cccc5[nH]ncc45)nc(N4CCOCC4)c3s2)CC1` [GDC-0941], in test [5], the TNF-α secretion entry is reported as “reduce TNF-α secretion specifically in wt cells”.

As for `O=C(N/N=C/c1ccc(O)c(O)c1)c1cc2ccccc2cc1O` [dynasore], the TNF-α secretion entry in test [5] was “reduce TNF-α secretion specifically in wt cells”. In addition, the “IRAP subcellular localization (re-internalization)” value in test [6] was “strong plasma membrane staining”.
